Assays:
blackgrass [1] = experiment: Test C preemergence; format: in vivo, Alopecurus myosuroides; settings: 0 to 100 scale (0 no effect, 100 complete control)
Method in brief: (§1)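 Greenhouse herbicide screen, 10-day duration. Test chemicals in solvent/surfactant blend were sprayed onto soil at sowing (pre) or onto 2–10 cm seedlings at one to two leaves (post); injury scored visually against controls, 0 no effect to 100 complete control.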

ryegrass, Italian [2] = experiment: Test C postemergence; format: in vivo, Lolium multiflorum; settings: 10 days
Method in brief: as §1

rice = experiment: Test D flooded paddy test; format: in vivo, Oryza sativa; settings: 250 g ai/ha, applied to paddy water, visual rating after 13 to 14 days, scale 0 to 100 (0 no effect, 100 complete control)
Method in brief: (§2)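 Seedlings reached the 2-leaf stage, then pots were flooded to 3 cm over the soil surface. Compound was applied into the water, depth was maintained, and plants stayed in the greenhouse 13 to 14 days before visual scoring (0–100) relative to controls.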

corn [3] = experiment: Test C postemergence; format: in vivo, Zea mays; settings: 10 days
Method in brief: as §1

ragweed [4] = experiment: Test C postemergence; format: in vivo, Ambrosia artemisiifolia; settings: 10 days
Method in brief: as §1

ryegrass, Italian [5] = experiment: Test C preemergence; format: in vivo, Lolium multiflorum; settings: 0 to 100 scale (0 no effect, 100 complete control)
Method in brief: as §1

wheat [6] = experiment: Test C preemergence; format: in vivo, Triticum aestivum; settings: 0 to 100 scale (0 no effect, 100 complete control)
Method in brief: as §1

soybean [7] = experiment: Test C postemergence; format: in vivo, Glycine max; settings: 10 days
Method in brief: as §1

kochia [8] = experiment: Test C postemergence; format: in vivo, Bassia scoparia; settings: 10 days
Method in brief: as §1

barnyardgrass [9] = experiment: Test C preemergence; format: in vivo, Echinochloa crusgalli; settings: 0 to 100 scale (0 no effect, 100 complete control)
Method in brief: as §1

sedge, umbrella = experiment: Test D flooded paddy test; format: in vivo, Cyperus difformis; settings: 250 g ai/ha, applied to paddy water, visual rating after 13 to 14 days, scale 0 to 100 (0 no effect, 100 complete control)
Method in brief: as §2

blackgrass [10] = experiment: Test C postemergence; format: in vivo, Alopecurus myosuroides; settings: 10 days
Method in brief: as §1

corn [11] = experiment: Test C preemergence; format: in vivo, Zea mays; settings: 0 to 100 scale (0 no effect, 100 complete control)
Method in brief: as §1

pigweed, palmer [12] = experiment: Test C postemergence; format: in vivo, Amaranthus palmeri; settings: 10 days
Method in brief: as §1

green foxtail [13] = experiment: Test C postemergence; format: in vivo, Setaria viridis; settings: 10 days
Method in brief: as §1

pigweed, palmer [14] = experiment: Test C preemergence; format: in vivo, Amaranthus palmeri; settings: 0 to 100 scale (0 no effect, 100 complete control)
Method in brief: as §1

ducksalad = experiment: Test D flooded paddy test; format: in vivo, Heteranthera limosa; settings: 250 g ai/ha, applied to paddy water, visual rating after 13 to 14 days, scale 0 to 100 (0 no effect, 100 complete control)
Method in brief: as §2

oat, wild [15] = experiment: Test C preemergence; format: in vivo, Avena fatua; settings: 0 to 100 scale (0 no effect, 100 complete control)
Method in brief: as §1

horseweed = experiment: Test C postemergence; format: in vivo, Erigeron canadensis; settings: 10 days
Method in brief: as §1

soybean [16] = experiment: Test C preemergence; format: in vivo, Glycine max; settings: 0 to 100 scale (0 no effect, 100 complete control)
Method in brief: as §1

barnyardgrass [17] = experiment: Test C postemergence; format: in vivo, Echinochloa crusgalli; settings: 10 days
Method in brief: as §1

wheat [18] = experiment: Test C postemergence; format: in vivo, Triticum aestivum; settings: 10 days
Method in brief: as §1

ragweed [19] = experiment: Test C preemergence; format: in vivo, Ambrosia artemisiifolia; settings: 0 to 100 scale (0 no effect, 100 complete control)
Method in brief: as §1

green foxtail [20] = experiment: Test C preemergence; format: in vivo, Setaria viridis; settings: 0 to 100 scale (0 no effect, 100 complete control)
Method in brief: as §1

barnyardgrass [21] = experiment: Test D flooded paddy test; format: in vivo, Echinochloa crus-galli; settings: 250 g ai/ha, applied to paddy water, visual rating after 13 to 14 days, scale 0 to 100 (0 no effect, 100 complete control)
Method in brief: as §2

oat, wild [22] = experiment: Test C postemergence; format: in vivo, Avena fatua; settings: 10 days
Method in brief: as §1

kochia [23] = experiment: Test C preemergence; format: in vivo, Bassia scoparia; settings: 0 to 100 scale (0 no effect, 100 complete control)
Method in brief: as §1

[24] = Preemergence, 500 g ai/ha, visual rating after 10 days
[25] = Test C, preemergence, 125 g ai/ha
[26] = 125 g ai/ha, postemergence, 0 to 100 scale, 0 no effect, 100 complete control
[27] = Postemergence, 500 g ai/ha, visual 0 to 100 scale (0 no effect, 100 complete control)

Cc1ccc(-n2cnc(CS(C)(=O)=O)n2)cc1C(=O)N1C[C@H](C)Oc2c(Cl)cccc21 [Compound 225]
80: Plant response rating, Blackgrass (blackgrass [1]; [24]) | Plant response rating, Corn (corn [3]; [26]) | Plant response rating, Ryegrass, Italian (ryegrass, Italian [5]; [24]) | Plant response rating, Wheat (wheat [6]; [24]) | Plant response rating, Kochia (kochia [8]; [26]) | Plant response rating, Horseweed (horseweed; [27]) | Soybean plant response rating (soybean [16]; [25])
20: Wheat plant response rating (wheat [6]; [25]) | Corn plant response rating (corn [11]; [25]) | Plant response rating, Foxtail, Green (green foxtail [13]; [26]) | Plant response rating, Horseweed (horseweed; [26]) | Plant response rating, Barnyardgrass (barnyardgrass [17]; [26]) | Kochia plant response rating (kochia [23]; [25])
70: Plant response rating, Ryegrass, Italian (ryegrass, Italian [2]; [26]) | Plant response rating, Barnyardgrass (barnyardgrass [17]; [27]) | Ragweed plant response rating (ragweed [19]; [25]) | Plant response rating, Oat, Wild (oat, wild [22]; [27])
15: Plant response rating, Rice (Flood) (rice)
90: Plant response rating, Ryegrass, Italian (ryegrass, Italian [2]; [27]) | Plant response rating, Corn (corn [3]; [27]) | Plant response rating, Ragweed (ragweed [4]; [26]) | Plant response rating, Ragweed (ragweed [4]; [27]) | Plant response rating, Kochia (kochia [8]; [27]) | Plant response rating, Blackgrass (blackgrass [10]; [27]) | Plant response rating, Corn (corn [11]; [24]) | Plant response rating, Pigweed, Palmer (pigweed, palmer [12]; [26]) | Plant response rating, Foxtail, Green (green foxtail [13]; [27]) | Plant response rating, Oat, Wild (oat, wild [15]; [24]) | Plant response rating, Soybean (soybean [16]; [24]) | Plant response rating, Wheat (wheat [18]; [27]) | Plant response rating, Ragweed (ragweed [19]; [24])
30: Plant response rating, Wheat (wheat [18]; [26])
50: Barnyardgrass plant response rating (barnyardgrass [9]; [25]) | Plant response rating, Blackgrass (blackgrass [10]; [26])
25: Plant response rating, Barnyardgrass (Flood) (barnyardgrass [21])
60: Blackgrass plant response rating (blackgrass [1]; [25]) | Ryegrass, Italian plant response rating (ryegrass, Italian [5]; [25]) | Oat, Wild plant response rating (oat, wild [15]; [25]) | Plant response rating, Oat, Wild (oat, wild [22]; [26])
100: Plant response rating, Soybean (soybean [7]; [26]) | Plant response rating, Soybean (soybean [7]; [27]) | Plant response rating, Barnyardgrass (barnyardgrass [9]; [24]) | Plant response rating, Sedge, Umbrella (Flood) (sedge, umbrella) | Plant response rating, Pigweed, Palmer (pigweed, palmer [12]; [27]) | Plant response rating, Pigweed, Palmer (pigweed, palmer [14]; [24]) | Pigweed, Palmer plant response rating (pigweed, palmer [14]; [25]) | Plant response rating, Ducksalad (Flood) (ducksalad) | Plant response rating, Foxtail, Green (green foxtail [20]; [24]) | Foxtail, Green plant response rating (green foxtail [20]; [25]) | Plant response rating, Kochia (kochia [23]; [24])
